In patent US20160168118A1, “N-(5-QUINOLIN-6-YL)PYRIDIN-3-YL) BENZSULFAMIDE DERIVATIVES, PREPARATION METHOD AND THERAPEUTIC USE THEREOF” (SECOND MILITARY MEDICAL UNIVERSITY, PLA, priority 2012, published 2016):
Read-outs that look alike come from different tables or passages of the source.

Experiments:
[1] = tested on: five human tumor cells; assay: MTT assay, five human tumor cells (summary in words); format: cell-based; details: A549, HCT116, HepG2, ZR-75-30, U87MG
Experimental: 1. Sample preparation: After dissolved with DMSO (Merck), PBS (−) was added to make 1000 μg/ml solution or a uniform suspension, and then diluted with PBS (−) containing the DMSO. Doxorubicin (DOX) was used as the positive control drug.
2. Cell Line • 1) A549 (human lung cancer cells); 2) HCT116 (human colon cancer cells); 3) HepG2 (human hepatoma cells); 4) ZR-75-30 (human breast cancer cells); 5) U87MG (human brain star glioblastoma)
DMEM+5-10% FBS+double resistant
MTT assay. 100 μl cell suspension was added at a concentration of 4˜5×10^4 cells/ml to each well of a 96-well plate, and was set at 37° C., 5% CO2 in the incubator. After 24 h, the sample solution was added, 10 μl/hole, double wells were set, 37° C., acting for 72 h at 5% CO2. […] of 5 mg/ml was added to each well, the dissolving liquid was added after acted for 4 h, 100 μl/hole, kept in the incubator, and read 570 nm OD with MK-2 automatic microplate reader after dissolution.

[2] = In vivo pharmacokinetics in SD rats; details: for AUC(0-t): read-out: AUC(0-24); for half-life / bioavailability: rat, plasma; for bioavailability: oral, rats, intragastric 20 mg/kg vs iv 2 mg/kg
Experimental: SD rats, male, 4-6 weeks old, weighing 200-220 g, the total number is 12, were purchased from Shanghai Slac laboratory animal limited liability company, animal production license number: SCXK (Shanghai) 2008-0016, the experimental animals using license number: SCXK (Shanghai) 2007-0005, certificate number: 2007000514232.
SD rats were randomly divided into two groups, numbered A and B, while 6 rats in each group, before the experiment starts, the rats were fasted 12 hours overnight, group A were tail vein injected with compound 9 by dose 2 mg/kg; group B were intragastric administrated with Compound 9 suspensions, of which the dose was calculated as 20 mg/kg;
Group A: tail intravenous injection (i.v.) administrated compound 9. Orbital blood 0.3 mL was taken on 0, 5, 10, 15, 30, 45, 60 min, 2 h, 3 h, 4 h, 6 h, 8 h, 12 h, and was placed in 1.5 mL EP tube coated with heparin, shaked up and down for 3 times, centrifuged at 3500 rpm for 5 min to get supernatant, and was kept in refrigerator at −20° C. to save backup;
Dose was 2 mg/kg (2.6 mL/kg), administered in a concentration of 770 μg/mL, which was dissolved with mixed aqueous solution of 9.4% ethanol and 24.5% isopropanol;
Group B: intragastric administration (i.g.), dose of 20 mg/kg, administered in a concentration of 1.5 mg/mL, and 3.75% Tween 80 was used to dissolve compound 9, gavage dose was (13.3 mL/kg);
Orbital blood 0.5 mL was taken at 0, 5, 10, 15, 30, 45, 60 min, 2 h, 3 h, 4 h, 6 h, 8 h, 12 h, 24 h, and was placed in 1.5 mL EP tube coated with heparin, shaked up and down for 3 times, centrifuged at 3500 rpm for 5 min to get supernatant, and kept in refrigerator at −20° C. to save backup.
Plasma sample 100 μL was precisely measured, put in 1.5 mL plastic centrifuge tube, 10 μL methanol and 190 μL methanol solution of compound 17 (internal standard) of 100.8 ng·mL^−1 were added, vortex mixed for 30 s, centrifuged at 12000r·min^−1 for 10 min, 200 μL supernatant was taken and put into the vial, 5 μL injected for HPLC-MS analysis.
Analytical conditions: column: SHISEIDO MG-C18 (100 mm×3.0 mm, 3.0 μm), mobile phase: acetonitrile: water (containing 0.1% formic acid=25:75 (V/V); flow rate: 0.8 mL·min^−1 analysis time 6 min, column temperature: 25° C., the injection volume: 5 μL, split ratio 2:1. The mass was in ESI source positive ion mode, the capillary voltage was 4000V, drying flow rate was 10 L/min, the atomizing air pressure was 40 psi, temperature of the drying gas was 350° C. Selective ion mode (SIM), the ion of compound 9 was [M+H] ions+m/z 561.2 and that of the internal standard compound 17 [M+H]+m/z 591.2, and the debris voltage was 70 eV.
The data gained were substituted into the accompanying standard curve, thus obtaining the drug concentration in rat plasma.
The pharmacokinetic parameters were analyzed by using non-compartmental model, the peak concentration Cmax and peak time Tmax were taken Found value, and the pharmacokinetic parameters were processed to obtain the pharmacokinetic parameters result of single dose.

[3] = tested on: human lung carcinoma A549 xenografts; assay: In vivo efficacy on human lung carcinoma A549 xenografts in nude mice; parameters: species or system BALB/C nude mice; details: ig, GSK2126458 3 mg/kg, compound 9 10 mg/kg
Source text: Strain: BALB/C nude mice (SPF grade), Source: Shanghai Slac laboratory animal limited liability company, the production license number: SCXK (Shanghai) 2007-0005, the using license number: SYXK (Shanghai) 2009-0068, gender: male, weight: 18-20 g, the number of animals per group: 6.
A549 solid tumors which were well-grown were taken, cut to uniform bits of about 3 mm size under aseptic condition, every bit was inoculated to each mouse subcutaneously in the right armpit with trocar, and randomly divided into three groups, each treatment was:
1) Control (saline), gavage, the dose 25 ml/kg, 14 days;
3) Compound 9, gavage, the dose 10 mg/kg, 14 days;
Regrouped according to tumor size on the 13th day after inoculation, the animals of which tumor size is too large and too small were eliminated, the average tumor volume of each group are basically the same. Administration was carried out according to the above regimen; the dosing volume was 0.5 ml/20 g body weight. The axis (a), shorter diameter (b) of tumor was measured 2 times a week with an electronic digital caliper, calculate formula of tumor volume (tumor volume, TV) is as follows: TV=1/2×a×b2, calculate formula of relative tumor volume (relative tumor volume, RTV), is as follows: RTV=Vt/Vo, wherein Vo is the tumor volume measured at the time when dividing cages (i.e. dl), Vt is the tumor volume measured each time. […] T test was conducted. Animals were sacrificed 30 days after inoculation, dissected and the tumor mass were taken, tumor weight was measured.

[4] = target: PI3K delta (Homo sapiens, UniProt O00329); assay: Kinase-Glo Luminescent Kinase Assay, PI3K delta; format: biochemical
[5] = male, SD, iv, rat plasma, tail vein injection, 2 mg/kg
[6] = male, SD, po, rat plasma, intragastric administration, 20 mg/kg
[7] = rat plasma, intragastric administration, 20 mg/kg
[8] = rat plasma, tail vein injection, 2 mg/kg

Chain of PI3K delta (O00329 whole entry): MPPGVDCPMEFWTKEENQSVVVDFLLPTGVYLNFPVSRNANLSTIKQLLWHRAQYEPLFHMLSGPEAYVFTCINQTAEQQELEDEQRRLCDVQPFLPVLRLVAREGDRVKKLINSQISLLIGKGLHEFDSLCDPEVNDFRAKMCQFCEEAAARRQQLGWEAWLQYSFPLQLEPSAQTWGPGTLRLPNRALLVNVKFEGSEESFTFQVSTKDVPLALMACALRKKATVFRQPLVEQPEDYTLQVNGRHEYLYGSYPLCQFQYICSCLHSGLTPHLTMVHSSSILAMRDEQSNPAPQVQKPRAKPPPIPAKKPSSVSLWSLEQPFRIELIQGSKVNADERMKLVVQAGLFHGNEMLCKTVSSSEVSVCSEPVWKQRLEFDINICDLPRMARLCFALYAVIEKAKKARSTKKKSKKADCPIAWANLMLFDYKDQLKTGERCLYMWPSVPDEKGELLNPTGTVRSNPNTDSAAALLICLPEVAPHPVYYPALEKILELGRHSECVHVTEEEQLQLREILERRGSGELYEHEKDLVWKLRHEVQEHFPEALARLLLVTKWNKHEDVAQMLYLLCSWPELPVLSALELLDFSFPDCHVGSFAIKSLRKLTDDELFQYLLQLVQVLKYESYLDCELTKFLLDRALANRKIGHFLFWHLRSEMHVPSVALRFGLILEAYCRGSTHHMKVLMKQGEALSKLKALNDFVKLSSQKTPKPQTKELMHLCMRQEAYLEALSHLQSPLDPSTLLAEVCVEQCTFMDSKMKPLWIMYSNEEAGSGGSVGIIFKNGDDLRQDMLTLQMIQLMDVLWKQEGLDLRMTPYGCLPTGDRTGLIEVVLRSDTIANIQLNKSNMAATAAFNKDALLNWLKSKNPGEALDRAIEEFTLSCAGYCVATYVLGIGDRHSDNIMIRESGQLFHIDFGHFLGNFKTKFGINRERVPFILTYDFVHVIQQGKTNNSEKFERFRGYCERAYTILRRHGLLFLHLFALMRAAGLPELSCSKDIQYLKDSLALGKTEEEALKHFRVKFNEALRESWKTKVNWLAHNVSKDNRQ
Chain of PI3K delta (P27986 whole entry partner): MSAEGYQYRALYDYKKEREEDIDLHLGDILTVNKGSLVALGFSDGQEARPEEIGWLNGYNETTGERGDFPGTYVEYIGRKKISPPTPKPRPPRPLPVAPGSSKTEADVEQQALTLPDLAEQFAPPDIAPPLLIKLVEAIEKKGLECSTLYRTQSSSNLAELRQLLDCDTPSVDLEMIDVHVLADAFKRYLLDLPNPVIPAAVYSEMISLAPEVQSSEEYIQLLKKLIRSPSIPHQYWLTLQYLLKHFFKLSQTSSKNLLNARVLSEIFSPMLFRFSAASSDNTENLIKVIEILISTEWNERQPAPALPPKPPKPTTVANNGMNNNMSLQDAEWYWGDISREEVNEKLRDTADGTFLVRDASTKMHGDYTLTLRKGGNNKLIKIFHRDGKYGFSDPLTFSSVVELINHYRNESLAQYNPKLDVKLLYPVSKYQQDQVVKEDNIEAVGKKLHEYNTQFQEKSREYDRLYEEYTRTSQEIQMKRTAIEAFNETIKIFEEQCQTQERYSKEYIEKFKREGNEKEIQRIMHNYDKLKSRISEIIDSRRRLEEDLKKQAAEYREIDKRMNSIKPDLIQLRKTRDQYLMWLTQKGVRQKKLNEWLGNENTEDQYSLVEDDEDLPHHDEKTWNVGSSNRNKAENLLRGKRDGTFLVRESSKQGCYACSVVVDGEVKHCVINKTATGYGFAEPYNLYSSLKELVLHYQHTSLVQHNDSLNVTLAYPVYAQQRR

SMILES: COc1ncc(-c2ccc3nccc(-c4ccc(CN(C)C)cc4)c3c2)cc1NS(=O)(=O)c1ccc(F)cc1F [Compound 9, N-(5-(4-(4-((dimethylamine)methyl)phenyl)quinolin-6-yl)-2-methoxypyridine-3-yl)-2,4-difluorobenzenesulfonamide]
- in vitro proliferation inhibition (in words) [1]: high in vitro proliferation inhibition
- AUC [2, 5]: 3740 ng·h/mL
- Cmax [2, 5]: 999 ng/mL
- MRT [2, 5]: 8.54 h
- Vd [2, 5]: 5.05 L/kg
- clearance [2, 5]: 8.92 mL/min/kg
- AUC(0-t) [2, 5]: 3450 ng·h/mL
- AUC [2, 6]: 35600 ng·h/mL
- Cmax [2, 6]: 7120 ng/mL
- MRT [2, 6]: 6.46 h
- Tmax [2, 6]: 0.5 h
- AUC(0-t) [2, 6]: 34100 ng·h/mL
- half-life ([2]; male, SD, iv, 2 mg/kg, rat plasma, tail vein injection): 6.55 h
- bioavailability ([2]; male, SD, 20 mg/kg, read-out: Absolute bioavailability F0-t): 98.8%
- bioavailability ([2]; male, SD, 20 mg/kg, read-out: Absolute bioavailability F0-∞): 95.2%
- half-life ([2]; male, SD, po, 20 mg/kg, rat plasma, intragastric administration): 4.4 h
- AUMC [2, 7]: 230.2 μg/mL · h
- AUMC(0-24) [2, 7]: 183.0 μg/mL · h
- k [2, 7]: 0.1573 h⁻¹
- t1/2 [2, 7]: 4.406 h
- AUMC [2, 8]: 31.95 μg/mL · h
- AUMC(0-24) [2, 8]: 22.23 μg/mL · h
- k [2, 8]: 0.1063 h⁻¹
- Animal wight (g) (tumor removed) ([3]; at end): 23.28 ± 1.34 g
- RTV (d18) x ± SD ([3]; d18): 5.37 ± 1.86
- IC50 [4]: 3.8 nM
